Measurements as given in patent US20250114460A1, “NOVEL PLK1 DEGRADATION INDUCING COMPOUND” (UPPTHERA, INC., priority 2021, published 2025).

Assays:
Assay type in all cases: cell-based
MRC-5 cell line = experiment: Cell viability assay for MRC-5 cell line (EZ-Cytox); conditions: Homo sapiens, MRC5, 120 h; MRC-5 normal cell line, 5 days, 10000 nM to 1.52 nM; N.D. = no cytotoxicity until 10 μM; read-out: Activity: IC50 value of Exemplary Compound to MRC-5 cell line
Method: 4. Cell Viability Assay for MRC-5 Cell Line
(1) Culture of MRC-5 Cell Line
Passage of cultured cells was maintained within P15.
(2) Treatment of Compounds of the Present Invention
Then, it was cultured in 37° C.
(3) Cytotoxicity Experiment
CO2 incubator for 4 hours.

NCI-H526 cell line = experiment: Cell viability assay for H526 cell (EZ-Cytox); conditions: Homo sapiens, NCI-H526, 120 h; H526 cells, 5 days, 3000 nM to 0.46 nM
How it was run: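 Read-out was EZ-Cytox colorimetric absorbance at 450 nm, taken after brief plate shaking, with IC50 derived. Before reading, H526 cells had been cultured with test compound for 5 days.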

PLK1 = molecular target: T1, PLK1 (Homo sapiens, UniProt P53350); experiment: Luciferase assay for PLK1 in HeLa LgBit (Plk1-HiBit KI) cell line; conditions: 300 nM compound, luminescence after 9 hours
T1 construct: endogenous in cells; host or cells: HeLa LgBit (Plk1-HiBit KI): HeLa stably expressing LgBit, with a CRISPR/Cas9 knock-in of HiBit at the endogenous PLK1 locus
T1 sequence (P53350 whole entry): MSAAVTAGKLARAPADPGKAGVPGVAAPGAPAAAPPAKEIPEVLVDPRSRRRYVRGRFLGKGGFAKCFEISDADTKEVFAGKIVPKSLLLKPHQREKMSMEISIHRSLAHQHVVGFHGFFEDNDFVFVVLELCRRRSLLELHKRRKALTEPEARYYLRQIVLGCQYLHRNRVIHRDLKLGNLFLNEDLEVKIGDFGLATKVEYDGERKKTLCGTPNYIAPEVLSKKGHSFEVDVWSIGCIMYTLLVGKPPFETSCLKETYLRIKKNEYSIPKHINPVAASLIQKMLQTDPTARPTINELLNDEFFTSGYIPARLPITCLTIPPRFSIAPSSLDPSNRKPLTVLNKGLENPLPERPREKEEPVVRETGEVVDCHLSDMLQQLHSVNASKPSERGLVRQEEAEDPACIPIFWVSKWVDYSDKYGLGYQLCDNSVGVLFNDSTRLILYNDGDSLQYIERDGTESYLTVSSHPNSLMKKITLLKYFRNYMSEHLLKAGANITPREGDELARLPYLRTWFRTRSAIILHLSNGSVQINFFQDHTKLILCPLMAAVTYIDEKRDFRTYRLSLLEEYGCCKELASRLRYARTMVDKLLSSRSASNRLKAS
How it was run: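 Luminescence, followed in real time after adding compound at 300 nM and Endurazine substrate, is reported relative to DMSO-treated wells. Cells are a HeLa LgBit line with a Plk1-HiBit knock-in, synchronized by 2 mM thymidine for 24 h, released, and cultured 18 h before treatment.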

Row | Activity: ratio of the luminescense value of each Exemplary Compound treatment group to DMSO treatment group (PLK1) | SMILES | IC50 (MRC-5 cell line) | IC50 (NCI-H526 cell line)
1 | ++ (++<0.6) | COc1cc(C(=O)NC2CCN(C(=O)CC3CN(c4ccc5c(c4)C(=O)N(C4CCC(=O)NC4=O)C5=O)C3)CC2)c(F)cc1Nc1ncc2c(n1)N(C1CCCC1)CC(F)(F)C(=O)N2C (stereo not drawn) [Compound 205, 4-((9-cyclopentyl-7,7-difluoro-5-methyl-6-oxo-6,7,8,9-tetrahydro-5H-pyrimido[4,5-b][1,4]diazepin-2-yl)amino)-N-(1-(2-(1-(2-(2,6-dioxopiperidin-3-yl)-1,3-dioxoisoindolin-5-yl)azetidin-3-yl)acetyl)piperidin-4-yl)-2-fluoro-5-methoxybenzamide] | > 10 µM | < 0.05 µM
2 | ++ (++<0.6) | COc1cc(C(=O)N2CCN(C/C=C/CN3CCN(c4ccc5c(c4)C(=O)N(C4CCC(=O)NC4=O)C5=O)CC3)CC2)ccc1Nc1ncc2c(n1)N(C1CCCC1)CC(F)(F)C(=O)N2C (stereo not drawn) [Compound 92, (E)-5-(4-(4-(4-(4-((9-cyclopentyl-7,7-difluoro-5-methyl-6-oxo-6,7,8,9-tetrahydro-5H-pyrimido[4,5-b][1,4]diazepin-2-yl)amino)-3-methoxybenzoyl)piperazin-1-yl)but-2-en-1-yl)piperazin-1-yl)-2-(2,6-dioxopiperidin-3-yl)isoindoline-1,3-dione] | > 10 µM | < 0.2 µM
3 | ++ (++<0.6) | COc1cc(C(=O)NC2CCN(CCOCCOCCNc3cccc4c3CN(C3CCC(=O)NC3=O)C4=O)CC2)ccc1Nc1ncc2c(n1)N(C1CCCC1)CC(F)(F)C(=O)N2C (stereo not drawn) [Compound 18, 4-((9-cyclopentyl-7,7-difluoro-5-methyl-6-oxo-6,7,8,9-tetrahydro-5H-pyrimido[4,5-b][1,4]diazepin-2-yl)amino)-N-(1-(2-(2-(2-((2-(2,6-dioxopiperidin-3-yl)-1-oxoisoindolin-4-yl)amino)ethoxy)ethoxy)ethyl)piperidin-4-yl)-3-methoxybenzamide] | > 10 µM | < 0.03 µM
4 | ++ (++<0.6) | COc1cc(C(=O)NC2CCN(C(=O)CCCOc3cccc4c3C(=O)N(C3CCC(=O)NC3=O)C4=O)CC2)c(F)cc1Nc1ncc2c(n1)N(C1CCCC1)CC(F)(F)C(=O)N2C (stereo not drawn) [Compound 30, 4-((9-cyclopentyl-7,7-difluoro-5-methyl-6-oxo-6,7,8,9-tetrahydro-5H-pyrimido[4,5-b][1,4]diazepin-2-yl)amino)-N-(1-(4-((2-(2,6-dioxopiperidin-3-yl)-1,3-dioxoisoindolin-4-yl)oxy)butanoyl)piperidin-4-yl)-2-fluoro-5-methoxybenzamide] | > 10 µM | < 0.1 µM
5 | ++ (++<0.6) | COc1cc(C(=O)NC2CCCN(C(=O)CCN3CCN(c4cccc5c4C(=O)N(C4CCC(=O)NC4=O)C5=O)CC3)C2)ccc1Nc1ncc2c(n1)N(C1CCCC1)CC(F)(F)C(=O)N2C (stereo not drawn) [Compound 123, 4-((9-cyclopentyl-7,7-difluoro-5-methyl-6-oxo-6,7,8,9-tetrahydro-5H-pyrimido[4,5-b][1,4]diazepin-2-yl)amino)-N-(1-(3-(4-(2-(2,6-dioxopiperidin-3-yl)-1,3-dioxoisoindolin-4-yl)piperazin-1-yl)propanoyl)piperidin-3-yl)-3-methoxybenzamide] | > 10 µM | < 0.1 µM
6 | +++ (+++: <0.3) | COc1cc(C(=O)NN2CCN(C3CN(c4ccc5c(c4)C(=O)N(C4CCC(=O)NC4=O)C5=O)C3)CC2)ccc1Nc1ncc2c(n1)N(C1CCCC1)CC(F)(F)C(=O)N2C (stereo not drawn) [Compound 201, 4-((9-cyclopentyl-7,7-difluoro-5-methyl-6-oxo-6,7,8,9-tetrahydro-5H-pyrimido[4,5-b][1,4]diazepin-2-yl)amino)-N-(4-(1-(2-(2,6-dioxopiperidin-3-yl)-1,3-dioxoisoindolin-5-yl)azetidin-3-yl)piperazin-1-yl)-3-methoxybenzamide] | > 10 µM | < 0.05 µM
7 | +++ (+++: <0.3) | COc1cc(C(=O)NC2CCN(C(=O)CCC3(O)CCN(c4cccc5c4C(=O)N(C4CCC(=O)NC4=O)C5=O)CC3)CC2)ccc1Nc1ncc2c(n1)N(C1CCCC1)CC(F)(F)C(=O)N2C (stereo not drawn) [Compound 63, 4-((9-cyclopentyl-7,7-difluoro-5-methyl-6-oxo-6,7,8,9-tetrahydro-5H-pyrimido[4,5-b][1,4]diazepin-2-yl)amino)-N-(1-(3-(1-(2-(2,6-dioxopiperidin-3-yl)-1,3-dioxoisoindolin-4-yl)-4-hydroxypiperidin-4-yl)propanoyl)piperidin-4-yl)-3-methoxybenzamide] | > 10 µM | < 0.05 µM
8 | ++ (++<0.6) | COc1cc(C(=O)NC2CCN(C(=O)CCN3CCN(c4ccc5c(c4)CN(C4CCC(=O)NC4=O)C5=O)CC3)CC2)ccc1Nc1ncc2c(n1)N(C1CCCC1)CC(F)(F)C(=O)N2C (stereo not drawn) [Compound 82, 4-((9-cyclopentyl-7,7-difluoro-5-methyl-6-oxo-6,7,8,9-tetrahydro-5H-pyrimido[4,5-b][1,4]diazepin-2-yl)amino)-N-(1-(3-(4-(2-(2,6-dioxopiperidin-3-yl)-1-oxoisoindolin-5-yl)piperazin-1-yl)propanoyl)piperidin-4-yl)-3-methoxybenzamide] | > 10 µM | < 0.03 µM
9 | ++ (++<0.6) | COc1cc(C(=O)NC2CCN(C(=O)CCCOc3cccc4c3CN(C3CCC(=O)NC3=O)C4=O)CC2)ccc1Nc1ncc2c(n1)N(C1CCCC1)CC(F)(F)C(=O)N2C (stereo not drawn) [Compound 32, 4-((9-cyclopentyl-7,7-difluoro-5-methyl-6-oxo-6,7,8,9-tetrahydro-5H-pyrimido[4,5-b][1,4]diazepin-2-yl)amino)-N-(1-(4-((2-(2,6-dioxopiperidin-3-yl)-1-oxoisoindolin-4-yl)oxy)butanoyl)piperidin-4-yl)-3-methoxybenzamide] | > 10 µM | < 0.05 µM
10 | +++ (+++: <0.3) | COc1cc(C(=O)NN2CCC(N3CC4(CCN(c5cccc6c5C(=O)N(C5CCC(=O)NC5=O)C6=O)CC4)C3)CC2)ccc1Nc1ncc2c(n1)N(C1CCCC1)CC(F)(F)C(=O)N2C (stereo not drawn) [Compound 211, 4-((9-cyclopentyl-7,7-difluoro-5-methyl-6-oxo-6,7,8,9-tetrahydro-5H-pyrimido[4,5-b][1,4]diazepin-2-yl)amino)-N-(4-(7-(2-(2,6-dioxopiperidin-3-yl)-1,3-dioxoisoindolin-4-yl)-2,7-diazaspiro[3.5]nonan-2-yl)piperidin-1-yl)-3-methoxybenzamide] | > 10 µM | < 0.03 µM
11 | ++ (++<0.6) | COc1cc(C(=O)NC2CCN(C(=O)CC3CCN(c4cccc5c4C(=O)N(C4CCC(=O)NC4=O)C5=O)C3)CC2)c(F)cc1Nc1ncc2c(n1)N(C1CCCC1)CC(F)(F)C(=O)N2C (stereo not drawn) [Compound 44, 4-((9-cyclopentyl-7,7-difluoro-5-methyl-6-oxo-6,7,8,9-tetrahydro-5H-pyrimido[4,5-b][1,4]diazepin-2-yl)amino)-N-(1-(2-(1-(2-(2,6-dioxopiperidin-3-yl)-1,3-dioxoisoindolin-4-yl)pyrrolidin-3-yl)acetyl)piperidin-4-yl)-2-fluoro-5-methoxybenzamide] | > 10 µM | < 0.1 µM
12 | ++ (++<0.6) | COc1cc(C(=O)NC2CCN(CC3CN(c4cc5c(cc4F)C(=O)N(C4CCC(=O)NC4=O)C5=O)C3)CC2)ccc1Nc1ncc2c(n1)N(C(C)C)CC(F)(F)C(=O)N2C (stereo not drawn) [Compound 162, 4-((7,7-difluoro-9-isopropyl-5-methyl-6-oxo-6,7,8,9-tetrahydro-5H-pyrimido[4,5-b][1,4]diazepin-2-yl)amino)-N-(1-((1-(2-(2,6-dioxopiperidin-3-yl)-6-fluoro-1,3-dioxoisoindolin-5-yl)azetidin-3-yl)methyl)piperidin-4-yl)-3-methoxybenzamide] | > 10 µM | < 0.1 µM
13 | +++ (+++: <0.3) | COc1cc(C(=O)NC2CCN(C(=O)CCN3CCN(c4cccc5c4C(=O)N(C4CCC(=O)NC4=O)C5=O)CC3)CC2)ccc1Nc1ncc2c(n1)N(C(C)C)CC(F)(F)C(=O)N2C (stereo not drawn) [Compound 66, 4 4-((7,7-difluoro-9-isopropyl-5-methyl-6-oxo-6,7,8,9-tetrahydro-5H-pyrimido[4,5-b][1,4]diazepin-2-yl)amino)-N-(1-(3-(4-(2-(2,6-dioxopiperidin-3-yl)-1,3-dioxoisoindolin-4-yl)piperazin-1-yl)propanoyl)piperidin-4-yl)-3-methoxybenzamide] | > 10 µM | < 0.05 µM
